Active and inactive are the calls of the source.
Key:
[1] = molecular target: T1, Short transient receptor potential channel 4 (Mus musculus, UniProt Q9QUQ5); test: calcium entry via TRPC4 opening agents – cell-based, HEK293 TRPC4/mu-opioid, Fluo-4 calcium, dose response (AID 434937); type: functional
T1 sequence (Q9QUQ5 whole entry): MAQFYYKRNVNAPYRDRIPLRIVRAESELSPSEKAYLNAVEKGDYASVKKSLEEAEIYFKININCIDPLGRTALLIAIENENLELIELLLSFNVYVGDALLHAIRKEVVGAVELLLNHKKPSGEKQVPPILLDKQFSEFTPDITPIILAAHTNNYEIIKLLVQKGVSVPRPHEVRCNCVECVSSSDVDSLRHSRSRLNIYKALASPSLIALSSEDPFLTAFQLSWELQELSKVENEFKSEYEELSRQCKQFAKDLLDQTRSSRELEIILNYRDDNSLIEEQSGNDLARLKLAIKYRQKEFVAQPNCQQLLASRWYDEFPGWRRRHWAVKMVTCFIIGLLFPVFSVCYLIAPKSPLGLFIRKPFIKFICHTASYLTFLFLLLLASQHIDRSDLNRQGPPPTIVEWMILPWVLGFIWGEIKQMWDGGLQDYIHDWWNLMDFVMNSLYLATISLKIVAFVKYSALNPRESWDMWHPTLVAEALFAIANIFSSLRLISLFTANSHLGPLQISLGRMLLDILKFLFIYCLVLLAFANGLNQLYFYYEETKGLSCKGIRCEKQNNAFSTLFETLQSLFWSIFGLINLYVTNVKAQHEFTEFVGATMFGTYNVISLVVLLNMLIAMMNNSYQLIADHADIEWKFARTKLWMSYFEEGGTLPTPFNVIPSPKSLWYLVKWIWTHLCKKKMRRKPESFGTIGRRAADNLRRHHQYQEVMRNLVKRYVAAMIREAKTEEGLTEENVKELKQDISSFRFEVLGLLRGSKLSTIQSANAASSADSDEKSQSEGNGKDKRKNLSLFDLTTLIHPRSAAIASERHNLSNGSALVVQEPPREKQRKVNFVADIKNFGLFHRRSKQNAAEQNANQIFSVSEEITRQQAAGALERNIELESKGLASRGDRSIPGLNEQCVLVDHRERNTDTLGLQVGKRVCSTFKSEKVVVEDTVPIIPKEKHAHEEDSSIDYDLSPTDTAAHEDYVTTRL

[2] = molecular target: T2, Polyadenylate-binding protein 1 (Homo sapiens, UniProt P11940); test: MLLE binding blockers, Cy5 peptide tracer – biochemical, fluorescence polarization, Cy5-PAM2 peptide, secondary, miRNA deadenylation inhibitor project, dose response (AID 602260); type: functional; settings: read-out: IC50_Mean
[3] = molecular target: T2, Polyadenylate-binding protein 1; test: MLLE domain peptide-binding blockers, IC50 – biochemical, fluorescence polarization, FITC-PAM2 peptide, dose response (AID 602259); type: functional; settings: read-out: IC50_Mean
[4] = molecular target: T3, Corticotropin-releasing factor receptor 2/Corticotropin-releasing factor-binding protein (Homo sapiens, UniProt P24387+Q13324); test: activators of CRF receptor 2 with binding protein – uHTS hits, confirmation (AID 602473); type: functional; settings: read-out: EC50_Mean
T3 sequence (Q13324 whole entry): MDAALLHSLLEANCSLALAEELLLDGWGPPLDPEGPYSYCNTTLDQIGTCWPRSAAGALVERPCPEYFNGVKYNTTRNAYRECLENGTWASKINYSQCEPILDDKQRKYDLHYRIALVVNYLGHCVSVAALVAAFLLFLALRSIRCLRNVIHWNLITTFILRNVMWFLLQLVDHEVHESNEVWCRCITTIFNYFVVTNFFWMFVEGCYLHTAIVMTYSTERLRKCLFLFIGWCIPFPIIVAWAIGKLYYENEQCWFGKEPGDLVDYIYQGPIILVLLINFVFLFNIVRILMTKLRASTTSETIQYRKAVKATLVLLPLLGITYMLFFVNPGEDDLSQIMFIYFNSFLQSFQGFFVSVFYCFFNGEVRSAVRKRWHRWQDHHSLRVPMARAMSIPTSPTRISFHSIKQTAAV
T3 sequence (P24387 whole entry): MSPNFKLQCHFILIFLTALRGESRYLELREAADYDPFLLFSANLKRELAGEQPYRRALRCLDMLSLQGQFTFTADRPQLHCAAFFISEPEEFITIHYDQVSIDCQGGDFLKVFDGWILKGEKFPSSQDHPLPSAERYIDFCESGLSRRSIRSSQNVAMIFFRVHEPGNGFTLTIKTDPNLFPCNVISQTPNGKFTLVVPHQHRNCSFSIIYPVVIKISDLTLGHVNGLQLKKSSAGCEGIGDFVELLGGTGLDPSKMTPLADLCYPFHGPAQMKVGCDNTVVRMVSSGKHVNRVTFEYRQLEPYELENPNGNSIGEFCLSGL

[5] = Trypanosoma cruzi growth suppression in host cells – NIH3T3 host cells, beta-gal luminescence, confirmation (AID 2044); type: functional, cell-based;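 note: intracellular parasites grown in NIH/3T3 mouse fibroblasts as host cells; luminescent beta-galactosidase reporter signal from transgenic T. cruzi replicating inside host cells; inhibitors lower the luminescence signal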
[6] = NIH3T3 cell viability loss – ATP luminescence, mouse fibroblasts, counter-screen, dose response (AID 2010); type: functional, cell-based;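 note: cells exposed to compound for about 90 hours before reading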
[7] = molecular target: Cytochrome P450 2C9 (Homo sapiens, UniProt P11712)
[8] = Luminescence Cell-Based Dose Response HTS to Identify Activators of Luciferase Translation or Activity in H4 […] Cells. [Related pubchem assays: 1829 (Project Summary), 1814 (Primary HTS)]; type: functional
[9] = tested on: Streptococcus sp. 'group A'; test: Streptococcus pyogenes SK(-)GAS viability under kanamycin – luminescence, BacTiterGlo, confirmation, counter-screen for streptokinase expression inhibitor project, dose response (AID 1900); type: functional, organism-based
[10] = tested on: H4; test: Luminescence Cell-Based Dose Response HTS to Identify Activators of 5'UTR Stem-Loop Driven Prion Protein mRNA Translation in H4 Neuroglioblastoma Cells. [Related pubchem assays: 1829 (Project Summary), 1814 (Primary HTS)]; type: functional; settings: Homo sapiens
[11] = molecular target: T4, Streptokinase A (Streptococcus pyogenes serotype M1, UniProt P10520); test: viability-normalized secreted streptokinase activity reduction – plasminogen activation absorbance, OD405, dose response (AID 1914); type: functional, Streptococcus pyogenes M1 GAS;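 note: secreted streptokinase activity via plasminogen activation per viability signal from cell pellet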
T4 sequence (P10520 whole entry): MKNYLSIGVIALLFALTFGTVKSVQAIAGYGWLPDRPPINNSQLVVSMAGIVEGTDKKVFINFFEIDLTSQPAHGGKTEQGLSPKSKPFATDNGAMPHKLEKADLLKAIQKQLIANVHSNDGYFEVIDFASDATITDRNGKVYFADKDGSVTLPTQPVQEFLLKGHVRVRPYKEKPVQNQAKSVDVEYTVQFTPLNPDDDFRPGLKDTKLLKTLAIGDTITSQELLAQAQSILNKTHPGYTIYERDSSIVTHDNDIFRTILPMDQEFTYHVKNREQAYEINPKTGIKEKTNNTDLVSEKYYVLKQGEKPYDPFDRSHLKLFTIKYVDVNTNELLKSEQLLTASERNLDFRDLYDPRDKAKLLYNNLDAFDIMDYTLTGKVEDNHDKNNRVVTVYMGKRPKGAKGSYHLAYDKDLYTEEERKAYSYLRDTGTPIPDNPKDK

[12] = tested on: Streptococcus; test: GAS UMAA2166 growth inhibition – luminescence, BacTiterGlo, counter-screen for streptokinase expression inhibitor project, dose response (AID 1915); type: functional, organism-based;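 note: potency for reduction of bacterial viability or growth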
[13] = molecular target: Cytochrome P450 2C19 (Homo sapiens, UniProt P33261); test: Cytochrome panel assay with activity outcomes. Panel member name: p450-cyp2c19 Compounds with AC50 equal or less than 10 uM are considered active; type: functional; settings: read-out: AC50
[14] = molecular target: Cytochrome P450 2D6 (Homo sapiens, UniProt P10635);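 note: CYP2D6 member of a cytochrome P450 panel assay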
[15] = molecular target: Cytochrome P450 3A4 (Homo sapiens, UniProt P08684);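 note: CYP3A4 tested as one member of a cytochrome P450 panel screen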
[16] = molecular target: T5, Leucine aminopeptidase (Plasmodium falciparum 3D7, UniProt Q8IL11); test: P. falciparum M17LAP inhibitors, primary screen, biochemical, fluorogenic H-Leu-NHMec substrate, 1536-well (AID 1619); type: functional
T5 sequence (Q8IL11 whole entry): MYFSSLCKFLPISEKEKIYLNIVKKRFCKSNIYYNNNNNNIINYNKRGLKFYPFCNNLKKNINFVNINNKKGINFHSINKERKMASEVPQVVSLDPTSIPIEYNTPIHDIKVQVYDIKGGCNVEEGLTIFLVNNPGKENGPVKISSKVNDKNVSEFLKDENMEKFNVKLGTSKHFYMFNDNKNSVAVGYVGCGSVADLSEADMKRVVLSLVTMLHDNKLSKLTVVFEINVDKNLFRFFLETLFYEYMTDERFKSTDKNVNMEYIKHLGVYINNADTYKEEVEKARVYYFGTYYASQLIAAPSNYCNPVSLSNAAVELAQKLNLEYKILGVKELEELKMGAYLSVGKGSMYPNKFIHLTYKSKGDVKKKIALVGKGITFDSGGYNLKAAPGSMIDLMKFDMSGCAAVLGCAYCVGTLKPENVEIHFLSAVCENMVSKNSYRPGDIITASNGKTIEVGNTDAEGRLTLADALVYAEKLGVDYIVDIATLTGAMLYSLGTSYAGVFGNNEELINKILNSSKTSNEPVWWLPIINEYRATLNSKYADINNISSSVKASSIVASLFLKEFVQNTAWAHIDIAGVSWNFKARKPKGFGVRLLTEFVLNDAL

[17] = molecular target: FAD-linked sulfhydryl oxidase ALR (Homo sapiens, UniProt P55789); test: ALR-catalysed DTT oxidation blockers – biochemical, H2O2 detection, luminescence, cherry-pick, dose response (AID 493248)
[18] = molecular target: T6, Microphthalmia-associated transcription factor (Homo sapiens, UniProt O75030); test: reducers of TRPM1 reporter luminescence, concentration series – cell-based, SK-MEL-5, cherry-picked, set 3, MITF inhibitor project, dose response (AID 493073); type: functional;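 note: SK-MEL-5 melanoma cells with luciferase driven by the MITF target TRPM1 promoter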
T6 sequence (O75030 whole entry): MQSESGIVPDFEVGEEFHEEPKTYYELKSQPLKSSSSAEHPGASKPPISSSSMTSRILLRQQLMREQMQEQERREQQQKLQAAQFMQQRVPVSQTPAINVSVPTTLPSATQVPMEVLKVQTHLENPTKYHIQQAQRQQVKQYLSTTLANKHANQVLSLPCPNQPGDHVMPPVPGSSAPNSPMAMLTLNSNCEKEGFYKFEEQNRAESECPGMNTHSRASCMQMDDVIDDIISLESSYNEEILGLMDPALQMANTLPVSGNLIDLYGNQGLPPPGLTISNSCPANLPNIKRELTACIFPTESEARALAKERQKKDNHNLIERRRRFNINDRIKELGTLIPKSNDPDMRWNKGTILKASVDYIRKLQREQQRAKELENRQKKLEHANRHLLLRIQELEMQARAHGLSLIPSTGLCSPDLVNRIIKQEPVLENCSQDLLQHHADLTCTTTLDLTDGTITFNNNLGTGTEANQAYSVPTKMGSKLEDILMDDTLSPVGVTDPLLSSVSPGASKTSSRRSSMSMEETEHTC

[19] = molecular target: T7, High affinity choline transporter 1 (Homo sapiens, UniProt Q9GZV3); test: human choline transporter blockers, potency – cell-based, 5-point CRC, membrane potential dye, dose response (AID 504840); type: functional
T7 sequence (Q9GZV3 whole entry): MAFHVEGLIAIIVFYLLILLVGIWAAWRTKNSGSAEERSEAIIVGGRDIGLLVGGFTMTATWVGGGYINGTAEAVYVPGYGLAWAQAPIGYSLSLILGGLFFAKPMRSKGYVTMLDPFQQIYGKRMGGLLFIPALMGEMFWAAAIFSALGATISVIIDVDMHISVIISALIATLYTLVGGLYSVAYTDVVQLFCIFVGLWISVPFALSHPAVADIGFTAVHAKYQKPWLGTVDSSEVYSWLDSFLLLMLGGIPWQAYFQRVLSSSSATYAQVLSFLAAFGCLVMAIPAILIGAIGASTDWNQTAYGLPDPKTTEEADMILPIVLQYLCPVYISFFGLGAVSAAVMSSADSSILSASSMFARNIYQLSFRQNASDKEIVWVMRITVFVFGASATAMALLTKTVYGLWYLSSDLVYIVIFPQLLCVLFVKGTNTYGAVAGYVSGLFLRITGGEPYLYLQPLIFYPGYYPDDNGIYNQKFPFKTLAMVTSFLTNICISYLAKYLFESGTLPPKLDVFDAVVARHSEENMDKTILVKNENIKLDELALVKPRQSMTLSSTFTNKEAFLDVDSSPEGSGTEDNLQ

Chain of Cytochrome P450 2C9 (P11712 whole entry): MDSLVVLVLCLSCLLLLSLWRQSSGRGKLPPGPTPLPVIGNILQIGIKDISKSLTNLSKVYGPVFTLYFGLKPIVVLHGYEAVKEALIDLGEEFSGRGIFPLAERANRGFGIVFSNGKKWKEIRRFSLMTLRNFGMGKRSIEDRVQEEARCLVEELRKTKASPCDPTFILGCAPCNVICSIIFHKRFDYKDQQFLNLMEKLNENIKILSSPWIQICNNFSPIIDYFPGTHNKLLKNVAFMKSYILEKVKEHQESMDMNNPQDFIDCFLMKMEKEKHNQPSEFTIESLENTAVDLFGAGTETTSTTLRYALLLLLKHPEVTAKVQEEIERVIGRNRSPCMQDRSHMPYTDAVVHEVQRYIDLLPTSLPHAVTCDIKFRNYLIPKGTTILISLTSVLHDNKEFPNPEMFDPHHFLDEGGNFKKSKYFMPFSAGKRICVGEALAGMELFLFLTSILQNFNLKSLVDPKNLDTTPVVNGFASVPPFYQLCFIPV
T2 sequence (P11940 whole entry, the tested form may be a part): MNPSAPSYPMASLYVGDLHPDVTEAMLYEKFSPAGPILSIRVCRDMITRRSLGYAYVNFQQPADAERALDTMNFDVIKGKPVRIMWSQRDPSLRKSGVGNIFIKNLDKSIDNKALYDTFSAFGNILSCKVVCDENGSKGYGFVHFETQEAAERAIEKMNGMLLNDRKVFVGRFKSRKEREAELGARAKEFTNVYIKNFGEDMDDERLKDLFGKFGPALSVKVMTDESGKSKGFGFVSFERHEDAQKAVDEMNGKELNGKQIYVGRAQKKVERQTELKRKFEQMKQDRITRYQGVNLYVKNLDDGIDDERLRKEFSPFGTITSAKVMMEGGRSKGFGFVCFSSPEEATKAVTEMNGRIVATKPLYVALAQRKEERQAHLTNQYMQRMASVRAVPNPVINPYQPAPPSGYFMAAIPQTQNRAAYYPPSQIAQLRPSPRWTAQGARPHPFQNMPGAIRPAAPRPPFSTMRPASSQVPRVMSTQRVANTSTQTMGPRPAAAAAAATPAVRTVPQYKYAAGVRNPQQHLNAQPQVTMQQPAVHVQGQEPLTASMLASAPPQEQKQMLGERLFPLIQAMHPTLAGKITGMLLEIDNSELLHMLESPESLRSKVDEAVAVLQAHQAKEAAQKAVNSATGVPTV
Chain of Cytochrome P450 3A4 (P08684 whole entry): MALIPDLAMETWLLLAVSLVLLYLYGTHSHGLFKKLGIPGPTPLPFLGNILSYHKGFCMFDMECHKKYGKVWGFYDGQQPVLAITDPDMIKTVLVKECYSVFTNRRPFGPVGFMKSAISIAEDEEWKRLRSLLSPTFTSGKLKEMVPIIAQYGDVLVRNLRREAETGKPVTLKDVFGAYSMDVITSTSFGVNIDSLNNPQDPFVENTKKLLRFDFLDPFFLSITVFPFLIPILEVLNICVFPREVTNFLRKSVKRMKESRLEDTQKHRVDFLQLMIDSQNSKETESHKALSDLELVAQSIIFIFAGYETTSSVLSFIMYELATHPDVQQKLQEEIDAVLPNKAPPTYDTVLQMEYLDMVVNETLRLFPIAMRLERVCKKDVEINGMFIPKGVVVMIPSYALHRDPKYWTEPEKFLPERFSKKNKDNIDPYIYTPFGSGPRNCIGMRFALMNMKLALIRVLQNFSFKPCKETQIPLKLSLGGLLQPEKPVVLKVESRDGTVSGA
Chain of Cytochrome P450 2C19 (P33261 whole entry): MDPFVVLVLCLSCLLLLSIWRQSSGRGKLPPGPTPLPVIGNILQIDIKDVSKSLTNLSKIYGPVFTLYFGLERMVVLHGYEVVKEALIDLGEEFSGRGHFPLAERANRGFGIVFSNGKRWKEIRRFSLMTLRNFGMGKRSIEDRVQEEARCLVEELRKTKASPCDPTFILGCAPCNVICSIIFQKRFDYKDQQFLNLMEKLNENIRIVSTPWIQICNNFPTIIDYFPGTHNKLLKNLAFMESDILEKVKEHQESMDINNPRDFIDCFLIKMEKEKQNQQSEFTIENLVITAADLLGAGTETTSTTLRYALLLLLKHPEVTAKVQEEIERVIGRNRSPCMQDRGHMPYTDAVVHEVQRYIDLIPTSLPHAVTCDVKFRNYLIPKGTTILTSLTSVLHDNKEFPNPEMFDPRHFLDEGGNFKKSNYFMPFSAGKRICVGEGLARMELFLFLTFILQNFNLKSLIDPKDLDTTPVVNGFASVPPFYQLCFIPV
Chain of Cytochrome P450 2D6 (P10635 whole entry): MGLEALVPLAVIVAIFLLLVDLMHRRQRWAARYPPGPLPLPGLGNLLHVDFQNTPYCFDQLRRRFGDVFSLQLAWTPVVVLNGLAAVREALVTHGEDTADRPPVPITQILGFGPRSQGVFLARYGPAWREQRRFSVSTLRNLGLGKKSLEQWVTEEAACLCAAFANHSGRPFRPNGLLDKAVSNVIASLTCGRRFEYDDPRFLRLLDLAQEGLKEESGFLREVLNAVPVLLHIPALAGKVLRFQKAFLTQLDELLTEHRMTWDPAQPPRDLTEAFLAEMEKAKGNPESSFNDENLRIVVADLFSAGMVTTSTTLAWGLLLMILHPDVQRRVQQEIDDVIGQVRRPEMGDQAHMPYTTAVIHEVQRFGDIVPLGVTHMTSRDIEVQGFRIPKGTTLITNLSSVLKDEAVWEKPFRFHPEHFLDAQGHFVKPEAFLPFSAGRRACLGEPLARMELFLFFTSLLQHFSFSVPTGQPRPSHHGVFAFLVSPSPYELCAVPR
Chain of FAD-linked sulfhydryl oxidase ALR (P55789 whole entry): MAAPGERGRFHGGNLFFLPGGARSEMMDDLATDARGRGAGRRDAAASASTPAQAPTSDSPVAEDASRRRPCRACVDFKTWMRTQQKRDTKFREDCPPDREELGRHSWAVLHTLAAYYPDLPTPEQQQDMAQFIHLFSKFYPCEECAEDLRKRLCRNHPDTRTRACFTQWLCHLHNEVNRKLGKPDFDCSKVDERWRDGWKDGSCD

CC12CCCCN1CCCc1c2[nH]c2ccccc12 (centres undefined)
EC50 [1]: 4.22 µM (active)
IC50 [2]: > 66 µM (inactive)
IC50 [3]: > 66 µM (inactive)
EC50 [4]: 4.38 µM (active)

CCN1CCN(c2c(Cl)cccc2NC(=O)c2ccc([N+](=O)[O-])cc2)CC1
EC50 [1]: 0.421 µM (active)

CCOC(=O)C1(CCCc2ccccc2)CCN(Cc2cn(CC)nc2C)CC1
EC50 [1]: 0.119 µM (active)

Cc1cc(Br)cc(C)c1OCCCCN(C)C.O=C(O)C(=O)O
EC50 [5]: 0.196 µM (active)
EC50 [6]: > 30 µM (not active)
AC50 [7]: inconclusive

CCOc1c(OC(C)=O)ccc(/C=C/c2ccc3cccc(OC(C)=O)c3n2)c1[N+](=O)[O-]
EC50 [8]: 8.52 µM (active)
EC50 [9]: 1.49 µM (active)
EC50 [10]: 8.07 µM (active)
EC50 [11]: > 150 µM (not active)
EC50 [12]: 8.24 µM (active)
AC50 [7]: inconclusive

O=C(COc1ccc2ccccc2c1Br)NNC(=O)Nc1ccccc1
AC50 [7]: inconclusive

COc1ccc(/C=C/CN2CCCC(C(=O)c3ccc(OC)c(F)c3)C2)cc1 (centres undefined)
EC50 [1]: 10.6 µM (active)

Cc1ccc(/C=N/NC(=O)C2CCN(Cc3ccc(F)cc3Cl)CC2)o1
AC50 [13]: 31.6 µM (inconclusive)
AC50 [14]: 35.5 µM (inconclusive)
AC50 [15]: 5.01 µM (inconclusive)
AC50 [7]: inconclusive

O=C(Nc1ccc(Cl)cc1)N1CCC(c2nc(-c3cccs3)no2)CC1
EC50 [1]: 3.35 µM (active)

CC(/C=C1\SC(=O)N(CCCC(=O)O)C1=O)=C\c1ccccc1
IC50 [16]: 15.8 µM (active)
AC50 [17]: 4.84 µM (active)
AC50 [18]: 2.36 µM (active)
IC50 [19]: 12.6 µM (active)

COc1ccc(NC(=O)c2cc(-c3ccccc3Cl)no2)cc1
AC50 [13]: 2.82 µM (inconclusive)
AC50 [15]: 20 µM (inconclusive)
AC50 [7]: inconclusive
